Assay [1] concerns the target T1, human recombinant DPP-IV (Homo sapiens, UniProt P27487).
T1 construct: purchased Cayman Chemical
As to the kind of experiment: DPP-IV inhibitor screening assay kit (Cayman), fluorogenic substrate Gly-Pro-AMC. It counts as biochemical. The note with it: mean ± SD of three independent experiments. Here is the method: To the best of our knowledge, no prior studies examined the in vitro DPP-IV-inhibitory effects of 1–3, although the protein-ligand complex for 3 was examined via molecular docking analysis, using Discovery Studio 3.0 and Meta-Pocket (http://projects.biotec.tu-dresden.de/metapocket/).
DPP-IV activity was analyzed using a DPP-IV inhibitor screening assay kit (Cayman Chemical, Ann Arbor, MI, USA), which provided a fluorescence-based method for screening DPP-IV inhibitors. The assay used the fluorogenic substrate, Gly-Pro-Aminomethylcoumarine (AMC), to measure DPP-IV activity. Cleavage of the peptide bond by DPP released the free AMC group, resulting in fluorescence that could be analyzed using an excitation wavelength of 350–360 nm and an emission wavelength of 450–465 nm.
The tested compounds were initially dissolved in DMSO to produce 50 mM stock solution, and subsequently diluted to the required concentrations using DMSO, and then they were added to a 96-well plate in final volume of 10 μL and a final concentration of 50 μM. The assay procedure is described briefly according to the manufacturer’s protocols as follows: Diluted assay buffer (30 μL) and diluted enzyme solution (10 μL) were added to the 96-well plate containing 10 μL of solvent (blank) or solvent-dissolved test compounds. The reaction was initiated by adding 50 μL of a diluted substrate solution, and the plate was incubated for 30 min at 37 °C. After incubation, fluorescence with an excitation wavelength of 350 nm and an emission wavelength of 450 nm was monitored using a plate reader (TECAN, Männedorf, Switzerland). The percent inhibition was expressed as ([DPP-IV level of vehicle–treated control–DPP-IV level of test samples]/DPP-IV level of vehicle-treated control) × 100.

Assay [2] relates to DPP-IV. The note with it: DPP-IV Glo Protease Assay kit (Promega); cited from earlier work.
Assay [3] deals with DPP-IV. Set-up: method as in PMID 22410395. The note with it: cited from earlier work.

These results are taken from paper PMC6222902, “DPP-IV Inhibitory Potentials of Flavonol Glycosides Isolated from the Seeds of Lens culinaris: In Vitro and Molecular Docking Analyses” (Molecules : A Journal of Synthetic Chemistry and Natural …, 2018).

T1 sequence (P27487 whole entry): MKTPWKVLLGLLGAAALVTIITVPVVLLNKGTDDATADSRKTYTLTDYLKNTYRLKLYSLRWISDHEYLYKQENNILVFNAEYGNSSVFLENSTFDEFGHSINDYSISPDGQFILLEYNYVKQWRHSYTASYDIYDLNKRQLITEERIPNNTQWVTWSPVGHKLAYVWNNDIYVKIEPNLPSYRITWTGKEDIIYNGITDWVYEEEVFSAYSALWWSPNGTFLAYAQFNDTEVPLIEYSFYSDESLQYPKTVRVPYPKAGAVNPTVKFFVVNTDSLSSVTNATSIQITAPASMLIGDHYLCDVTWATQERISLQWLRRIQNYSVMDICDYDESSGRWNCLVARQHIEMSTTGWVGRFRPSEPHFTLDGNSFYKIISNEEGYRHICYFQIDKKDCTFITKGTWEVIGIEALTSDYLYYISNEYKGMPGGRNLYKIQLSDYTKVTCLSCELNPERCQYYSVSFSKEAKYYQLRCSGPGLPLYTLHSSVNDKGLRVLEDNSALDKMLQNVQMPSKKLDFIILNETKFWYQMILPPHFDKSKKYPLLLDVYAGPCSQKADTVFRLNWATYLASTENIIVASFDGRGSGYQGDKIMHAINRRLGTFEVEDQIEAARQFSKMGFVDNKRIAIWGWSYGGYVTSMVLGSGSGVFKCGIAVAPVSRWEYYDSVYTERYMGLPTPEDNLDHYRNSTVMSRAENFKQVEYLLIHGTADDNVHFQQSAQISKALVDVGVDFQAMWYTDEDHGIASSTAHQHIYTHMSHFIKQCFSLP

Take `CC1OC(Oc2cc(O)c3c(=O)c(OC4OC(CO)C(O)C(O)C4OC4OC(CO)C(O)C(O)C4O)c(-c4ccc(O)cc4)oc3c2)C(O)C(O)C1O` (stereo not drawn) [Compound 1, kaempferol-3-O-β-gulcopyranosyl-(1→2)-β-galactopyranosyl-7-O-α-rhamnopyranoside]: the 50% inhibitory concentration (IC50) in assay [1] is 27.9 ± 1.29 µM.

For `CC1OC(OCC2OC(Oc3c(-c4ccc(O)cc4)oc4cc(OC5OC(C)C(O)C(O)C5O)cc(O)c4c3=O)C(OC3OC(CO)C(O)C(O)C3O)C(O)C2O)C(O)C(O)C1O` (stereo not drawn) [Compound 2, kaempferol-3-O-β-gulcopyranosyl-(1→2)-[α-rhamnopyranosyl(1→6)]-β-galactopyranosyl-7-O-α-rhamnopyranoside], the concentration for half-maximal inhibition (IC50) in assay [1] worked out at 36.5 ± 0.78 µM.

On to `CC1OC(OCC2OC(Oc3c(-c4ccc(O)cc4)oc4cc(OC5OC(C)C(O)C(O)C5O)cc(O)c4c3=O)C(O)C(O)C2O)C(O)C(O)C1O` (stereo not drawn) [Compound 3, kaempferol-3-O-α-rhamnosyl(1→6)-O-β-galactopyranoside-7-O-α-rhamnopyranoside], for which the IC50 in assay [1] stood at 37 ± 1.4 µM.

For the compound `O=c1c(O)c(-c2ccc(O)cc2)oc2cc(O)cc(O)c12` [Compound 4, kaempferol], the IC50 was 51.7 ± 4.83 µM in assay [1] and 0.49 ± 0.02 µM in assay [2].

`O=c1c(O[C@@H]2O[C@H](CO)[C@@H](O)[C@H](O)[C@H]2O)c(-c2ccc(O)c(O)c2)oc2cc(O)cc(O)c12` [isoquercitrin]: the “in vivo bioactivities as a DPP-IV inhibitor” value in assay [3] is listed as “strong in vivo bioactivities”.

`C[C@@H]1O[C@@H](O[C@H]2[C@H](Oc3cc(O)c4c(c3)O[C@H](c3ccc(O)cc3)CC4=O)O[C@H](CO)[C@@H](O)[C@@H]2O)[C@H](O)[C@H](O)[C@H]1O` [naringin]: the “in vivo bioactivities as a DPP-IV inhibitor” value in assay [3] is recorded as “strong in vivo bioactivities”.
